# Experimental data taken from patent US12366576B2, “Compositions, assays, and methods for direct modulation of fatty acid metabolism” (Dana-Farber Cancer Institute, Inc., priority 2016, dated 2025).
# Bridge positions count the residues as written; N and C are the ends. Square brackets hold non-standard residues; d marks the D form. Ends that are not written are not given here. Peptide text beside a SMILES is read from it. S5 = C=CCCC[C@](C)(N)C(=O)O
# Columns and labels:
# [1] = target: T1, VLCAD (Homo sapiens, UniProt P49748); assay: Isothermal calorimetry (ITC); assay type: binding; conditions: 80 μM recombinant VLCAD, injection of 100 μM peptide, 25° C.
# T1 construct: 10x His (N); made in house; host or cells: E. coli BL21(DE3), pET19b
# T1 sequence (P49748 40-655): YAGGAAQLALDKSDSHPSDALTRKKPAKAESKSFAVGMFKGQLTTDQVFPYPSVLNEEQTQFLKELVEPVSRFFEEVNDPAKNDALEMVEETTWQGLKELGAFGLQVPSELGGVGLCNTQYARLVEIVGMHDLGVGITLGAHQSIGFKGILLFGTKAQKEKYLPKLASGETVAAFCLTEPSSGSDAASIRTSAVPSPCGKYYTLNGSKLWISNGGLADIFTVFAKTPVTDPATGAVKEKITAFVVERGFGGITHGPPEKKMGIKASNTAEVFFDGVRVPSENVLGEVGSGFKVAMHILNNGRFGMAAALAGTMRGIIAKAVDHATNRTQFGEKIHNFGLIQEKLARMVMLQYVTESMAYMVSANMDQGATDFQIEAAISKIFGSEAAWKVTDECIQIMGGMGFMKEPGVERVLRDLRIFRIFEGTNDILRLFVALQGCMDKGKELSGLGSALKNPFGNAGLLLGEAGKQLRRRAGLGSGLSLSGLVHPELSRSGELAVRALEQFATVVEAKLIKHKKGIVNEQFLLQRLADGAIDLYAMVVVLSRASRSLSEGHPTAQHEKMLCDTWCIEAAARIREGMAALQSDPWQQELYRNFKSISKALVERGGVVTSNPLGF
# Source text: The alanine mutant peptide panel was then utilized in an isothermal calorimetry (ITC)-based enthalpy screen to assess the relative binding activities of the different peptides to recombinant VLCAD protein (FIG. 19A). Although some differences in binding hierarchy were observed between the pull down (native protein) and ITC (purified recombinant protein) methods, those peptides displaying the strongest and weakest binding activity for VLCAD were similar between the two analyses.
# VLCAD. Mature human VLCAD lacking its cleavable leader sequence (aa 40-655) (NP_000009.1) was subcloned into the pET19b vector (Novagen) using NdeI and XhoI restriction sites. Correct insertion was confirmed by DNA sequencing. The 10× His-tagged VLCAD construct was expressed in BL21(DE3) E. coli, and once cells reached an OD of 0.8 after growing at 37° C., they were induced with 0.5 mM […] (IPTG) (Gold Biotechnology I2481C) at 37° C. for 4 hours. Bacterial pellets were resuspended in lysis buffer (500 mM NaCl, 50 mM HEPES, 5% glycerol, pH 7.5, complete protease inhibitor tablet) and lysed by microfluidization (M-110L; Microfluidics). Cell lysates were then cleared by centrifugation at 20,000 rpm for 45 min (Beckman Avanti J-E, rotor type JA-20). Cleared cellular lysates were then subjected to Ni-NTA (QIAGEN) affinity chromatography, followed by elution with 300 mM imidazole (Sigma 12399) and overnight dialysis at 4° C. Dialyzed VLCAD was then concentrated and subjected to size exclusion chromatography (GE Healthcare Life Sciences Superdex 200 10/300 GL) at 4° C. using 150 mM NaCl, 50 mM Tris, pH 8.0. Protein was used upon isolation and was stored at 4° C. for up to two weeks. Successful protein production was confirmed by SDS-PAGE, Western blot, intact MS, and enzymatic activity assay.
# A peptide enthalpy screen was performed by adding 80 μM of recombinant VLCAD to the cell in analysis buffer (20 mM HEPES, pH 7.5, 150 mM NaCl, 1 mM TCEP, and 1% DMSO), followed by injection of 2.0 μL of 100 μM peptide by syringe, using an Affinity ITC (TA instruments) at 25° C. Injections were performed in technical triplicate for each peptide. […] Data were analyzed with the NanoAnalyze software package (TA instruments) using a single binding site model and thermodynamic parameters calculated as follows: ΔG=ΔH−TΔS=−RTlnKB, where ΔG, ΔH, and ΔS are the changes in free energy, enthalpy and entropy of binding, respectively.
# [2] = tested on: endogenous MCL-1; assay: Biotinylated SAHB pulldown from MEF lysates, anti-MCL-1 Western analysis; assay type: binding, mouse; conditions: for effect of alanine mutation on biotinylated MCL-1 SAHBD interaction with MCL-1: pull-downs from MEF lysates; for summary of binding properties: binding to MCL-1: pull-downs
# Protocol: An exploratory proteomics analysis was conducted to identify proteins that interact with the MCL-1 BH3 domain helix. An extensive library of MCL-1 stapled BH3 peptides (FIG. 2) was generated to both identify novel protein interactors by mass spectrometry and then deploy the stapled peptide constructs as novel probes to dissect and pharmacologically modulate the identified protein interactors and associated signaling pathways. As an example, an N-terminally biotinylated stapled peptide designed based on the sequence of MCL-1's BH3 domain (Btn-MCL-1 SAHBD), or vehicle, was incubated with wild-type mouse embryonic fibroblast (MEF) lysates, followed by high stringency streptavidin capture. To validate the proteomics workflow and ensure that Btn-MCL-1 SAHBD could, in fact, engage protein interactors in a lysate, eluates were first run on a gel for anti-MCL-1 Western analysis. […] For mass spectrometry (MS) analysis, eluates were run on a reducing/denaturing gel followed by Coomassie staining (FIG. 4) and in-gel digestion was performed before injection on the instrument.
# The binding determinants for the MCL-1 BH3/VLCAD interaction were investigated by generating a series of biotinylated MCL-1 SAHBD alanine point mutants (FIG. 18A) and performing streptavidin pull-downs from MEF lysates, followed by VLCAD and MCL-1 western analysis of the resulting eluates. […] Native alanines and residues not mutated are colored white.
# Wild-type MEFs were trypsinized, washed once with cold PBS, and lysed on ice with NP-40 lysis buffer (50 mM Tris, pH 7.4, 150 mM NaCl, 0.5% (v/v) NP-40, complete protease inhibitor pellet (Roche)) using 1 ml of lysis buffer for every 10 million cells lysed. Cellular debris was pelleted at 14,000 g for 10 min at 4° C., and the supernatant was quantified using the BCA Protein Assay Kit (Thermo Fisher Scientific). 2 mg of lysate per pulldown were then exposed to 50 μL of pre-equilibrated High Capacity Streptavidin Agarose beads (Thermo Fisher Scientific). […] The beads were then pelleted and washed with NP-40 lysis buffer three times before eluting the protein sample from the beads by heating at 70° C. for 10 min in SDS loading buffer. Samples were then subjected to electrophoresis and either Western analysis or Coomassie stain (SimplyBlue Safe Stain, Thermo Fisher Scientific). […] Coomassie stained gels were then processed for proteomics analysis (see below). Biotinylated SAHB pulldowns of recombinant protein were performed as above incubating 5 nmol of SAHB with 10 pmol of rVLCAD in 500 μL total volume. Densitometry analyses were performed using ImageJ software.
# [3] = tested on: CreER^T2 MEFs; assay: MS-based acylcarnitine quantification in MEFs; assay type: cell-based, mouse; conditions: 10 μM
# [4] = tested on: Mcl-1^F/F CreER^T2 cells; conditions: vehicle and tamoxifen exposed cells; except at the highest dose applied (100 μM)
Molecule,"relative binding activity for VLCAD (ITC enthalpy screen, consistent with pull down) [1]","relative binding activity for VLCAD (ITC enthalpy screen, consistent with pull down) ([1]; listed as MCL-1 SAHBD V220A)",effect of alanine mutation on biotinylated MCL-1 SAHBD interaction with MCL-1 [2],summary of binding properties: binding to MCL-1 [2],"levels of very long-chain acylcarnitines relative to vehicle-treated control ([3]; Mcl-1^F/F CreER^T2 MEFs not exposed to tamoxifen, 48 hours)",effect on already elevated acylcarnitine levels ([3]; Mcl-1^F/F CreER^T2 MEFs subjected to tamoxifen (Mcl-1 deleted)),cytotoxicity (cell viability) [4]
CC(=O)N[C@@H](CCCNC(=N)N)C(=O)N[C@@H](CCCCN)C(=O)N[C@@H](C)C(=O)N[C@@H](CC(C)C)C(=O)N[C@@H](CCC(=O)O)C(=O)N[C@H](C(=O)N[C@@H](CC(C)C)C(=O)N[C@@H](CCCNC(=N)N)C(=O)N[C@@H](CCCNC(=N)N)C(=O)N[C@H](C(=O)NCC(=O)N[C@@H](CC(=O)O)C(=O)NCC(=O)N[C@@H](C)C(=O)N[C@@]1(C)CCCC=CCCC[C@@](C)(C(=O)N[C@H](C(=O)N[C@@H](C)C(=O)N[C@@H](Cc2ccccc2)C(N)=O)[C@@H](C)O)NC(=O)[C@H](Cc2c[nH]cn2)NC(=O)[C@H](CC(N)=O)NC(=O)[C@H](CCCNC(=N)N)NC1=O)C(C)C)[C@@H](C)O [V220A] (Ac-RKALETLRRVGDGA[S5]RNH[S5]TAF-NH2; staple 15-19; N-terminus and C-terminus assumed),robust binding,strongest binder,uniquely disruptive,weakly or not,,,
"D218A: biotinylated MCL-1 SAHBD alanine point mutant D218A (RKALETLRRVGAGV[S5]RNH[S5]TAF; staple 15-19; also: biotinylated, place not given here)",robust binding,,,Binds,,,
"F228A: biotinylated MCL-1 SAHBD alanine point mutant F228A (RKALETLRRVGDGV[S5]RNH[S5]TAA; staple 15-19; also: biotinylated, place not given here)",weak VLCAD association,,,Does not bind,,,
"L213A: biotinylated MCL-1 SAHBD alanine point mutant L213A (RKALETARRVGDGV[S5]RNH[S5]TAF; staple 15-19; also: biotinylated, place not given here)",weak VLCAD association,,disrupted,Does not bind,,,
"MCL-1 SAHBD: hydrocarbon-stapled peptide mimicking the MCL-1 BH3 domain (Stabilized Alpha-Helix of BCL-2 Domain), SEQ ID NO:19 (RKALETLRRVGDGV[S5]RNH[S5]TAF; staple 15-19)",,,,Binds,elevated levels,no effect,Essentially no cytotoxicity
"R207A: biotinylated MCL-1 SAHBD alanine point mutant R207A (AKALETLRRVGDGV[S5]RNH[S5]TAF; staple 15-19; also: biotinylated, place not given here)",weak VLCAD association,,,diminished binding,,,
"R214A: biotinylated MCL-1 SAHBD alanine point mutant R214A (RKALETLARVGDGV[S5]RNH[S5]TAF; staple 15-19; also: biotinylated, place not given here)",weak VLCAD association,,,Does not bind,,,
"R215A: biotinylated MCL-1 SAHBD alanine point mutant R215A (RKALETLRAVGDGV[S5]RNH[S5]TAF; staple 15-19; also: biotinylated, place not given here)",weak VLCAD association,,,Binds,,,
